Measurements: patent publication US20260227412A1, “USE OF IFN-I ACTIVITY AS A BIOMARKER FOR TLR INHIBITOR TREATMENT” (MERCK PATENT GMBH, priority 2022, published 2026)

How the values were obtained:
[1] = test system: patients hospitalized with COVID-19 pneumonia; assay: Exploratory phase II clinical study of enpatoran in patients hospitalized with COVID-19 pneumonia (NCT04448756), time to recovery; type: in vivo, human
Method: An exploratory phase II clinical study in patients hospitalized with COVID-19 pneumonia was conducted to inter alia assess whether the TLR inhibitor enpatoran improves time to recovery (NCT04448756).
Statistical testing was considered exploratory, and results are presented with no adjustment of type I error for multiplicity. Time to recovery was defined as time from Day 1 to first occurrence of WHO 9-point ordinal scale of ≤3 and was estimated via Kaplan-Meier (KM) analysis, presented with two-sided 95% confidence intervals (CI). The effect of each dose level compared with placebo was evaluated using a stratified log-rank test.
Blood was collected directly in PAXgene RNA tubes from patients at baseline prior to treatment for measurement of gene expression. IFN-I activity was measured by DxTerity Diagnostics (Rancho Dominguez, California, USA), using the IFN-1 test, a commercially available chemical ligation-dependent probe amplification and gene expression test with relative quantitative analysis by capillary electrophoresis. Sample testing and analysis was performed as previously described (Kim et al., J Mol Diagn. 2015 March;17 (2): 118-27). The IFN-1 test measures the expression levels of four IFN response genes (HERC5, IFI27, IFIT1 and RSAD2), i.e. the Dx-4 IFN-I signature, relative to the expression levels of three housekeeping normalizer genes (ACTB, GAPDH and TFRC). Normalized expression values of each respective response gene were calculated per the following function: Normalized ExpressionGene i=Log2(HeightGene i)−Mean (Log2 (Normaliser Gene Height)). The IFN-I signature score was calculated by averaging the normalized expression values of the four response genes. The cut-off between high IFN-I signature and low IFN-I signature scores (−0.5), was set to the mean±2 SDs (95th percentile) of IFN-I signature scores from 281 healthy human donors. This cut-off falls within the trough of the observed bimodal distribution of IFN-I signature scores for cohorts of SLE patients.
149 patients received either placebo (n=49), or enpatoran 50 mg (n=54)0r 100 mg (n=46) BID. Mean IFN-I signature scores (50 mg BID-0.84; 100 mg BID-0.74; placebo-0.91) and the proportion of patients with high IFN-I signature scores at baseline (50 mg BID 35%; 100 mg BID 43%; placebo 35%) were reasonably consistent across treatment groups, as reflected by Table 2: […]

[2] = test system: TLR7/8 activation in human PBMCs by patient-derived immune complexes; assay: IFN-α production in healthy donor PBMCs stimulated with patient-derived immune complexes (AlphaLISA); type: cell-based; conditions: PBMCs pre-treated with 1 μM enpatoran for 30 minutes, immune complex 24 hours
From the text: Blood sample collection: Blood samples were collected from subjects with lupus nephritis (LN), systemic lupus erythematosus (SLE), dermatomyositis (DM), polymyositis (PM), patients with inclusion body myositis (IBM) and healthy controls (HC). Blood plasma was isolated and frozen. Later, immunoglobulin G (IgG) was purified using protein A resin and the protein concentration determined.
Immune complex formation and peripheral blood mononuclear cell (PBMC) stimulation: To generate necrotic cell lysates, human embryonic kidney 293 cells were suspended at a concentration of 50 x10^6 cells/mL in phosphate buffered saline (PBS; Gibco, Grand Island, NY). The cells were frozen at −80° C. for 10 minutes followed by thawing at 37° C. Four freeze/thaw cycles were performed. The lysate was centrifuged at 400 g for 5 minutes to separate non-lysed cells and the supernatant was collected as necrotic cell lysate.
PBMCs were isolated from leukopacks collected from healthy donors (New York Blood Center, New York, NY) in sodium heparin tubes using Ficoll-Paque Plus (Cytiva Life Sciences, Uppsala, Sweeden). The cells were plated in 96-well U-bottom plates (4 x10^5 cells/well) in RPMI 1640 Medium (Gibco, Grand Island, NY) supplemented with 10% fetal bovine serum (FBS; Corning, Woodland, CA). […] The supernatants were collected and cytokine production was measured by AlphaLISA (PerkinElmer, Waltham, MA).

[3] = subgroup with high IFN-I signature scores at baseline, 50 mg BID
[4] = subgroup with high IFN-I signature scores at baseline, 100 mg BID

N#Cc1ccc(N2C[C@H](N)C[C@H](C(F)(F)F)C2)c2cccnc12 [enpatoran, 5-[(3R,5S)-3-amino-5-(trifluoromethyl)piperidin-1-yl]quinoline-8-carbonitrile]
KM-estimated cumulative recovery rate up to Day 14 [1, 3]: 78.6%
recovery rate at Day 28 [1, 3]: 73.3%
KM-estimated cumulative recovery rate up to Day 14 [1, 4]: 88.2%
recovery rate at Day 28 [1, 4]: 88.2%
recovery rate at Day 28 ([1]; subgroup with low IFN-I signature scores at baseline, 50 mg BID): 100%
recovery rate at Day 28 ([1]; subgroup with low IFN-I signature scores at baseline, 100 mg BID): 91.3%
primary efficacy endpoint of the time to recovery from Day 1 through Day 28 ([1]; unstratified patient populations, enpatoran 50 mg or 100 mg BID vs placebo): not met
recovery rate ([1]; unstratified, Day 1 through Day 28, 50 mg BID): 88.9%
recovery rate ([1]; unstratified, Day 1 through Day 28, 100 mg BID): 91.3%
median time to recovery ([1]; unstratified, range across groups (placebo, 50 mg BID, 100 mg BID)): 3.4 to 3.9 days
IFN-α production [2]: completely inhibited
